Consider 36 molecules from US7781590B2, “Piperidinylalkylcarbamate derivatives, methods for their preparation and the therapeutic use thereof as fatty acid amido hydrolase enzyme inhibitors” (Sanofi-Aventis, priority 2004, dated 2010).

SMILES strings stand for the structures. Counter-ions that a name gives are not always drawn.

In turn, `CNC(=O)COC(=O)NCCC1CCN(Cc2cccc(Cl)c2F)CC1` [Compound 23, 2-(methylamino)-2-oxoethyl 2-[1-(3-chloro-2-fluorobenzyl)piperidin-4-yl]ethylcarbamate] had a melting point of 104 to 106 °C. Molecule `CCOc1ccc(CCN2CCC(CCNC(=O)OCC(=O)NC)CC2)cc1` [Compound 59, 2-(methylamino)-2-oxoethyl 2-(1-{2-[4-(ethyloxy)phenyl]ethyl}piperidin-4-yl)ethylcarbamate] showed a melting point of 118 to 120 °C. The figure for `CNC(=O)COC(=O)NCCC1CCN(Cc2ccc(F)c(Cl)c2)CC1` [Compound 101, 2-(methylamino)-2-oxoethyl 2-[1-(3-chloro-4-fluorobenzyl)piperidin-4-yl]ethylcarbamate] is 112 to 114 °C.

`CNC(=O)COC(=O)NCCC1CCN(CCc2cc(-c3ccc(Cl)cc3)no2)CC1` [Compound 120, 2-(methylamino)-2-oxoethyl 2-(1-{2-[3-(4-chlorophenyl)isoxazol-5-yl]ethyl}piperidin-4-yl)ethylcarbamate] gave a melting point of 135 to 137 °C. Turning to `CNC(=O)COC(=O)NCCC1CCN(Cc2ccc(C(F)(F)F)cc2)CC1` [Compound 14, 2-(methylamino)-2-oxoethyl 2-(1-{[4-(trifluoromethyl)phenyl]methyl}piperidin-4-yl)ethylcarbamate], the melting point was 116 to 120 °C. For `CNC(=O)COC(=O)NCCC1CCN(Cc2cccc3ccccc23)CC1` [Compound 29, 2-(methylamino)-2-oxoethyl 2-[1-(naphthalen-1-ylmethyl)piperidin-4-yl]ethylcarbamate] the value was 86 to 88 °C; for `CNC(=O)COC(=O)NCCC1CCN(Cc2ccc(Cl)c(Cl)c2)CC1` [Compound 20, 2-(methylamino)-2-oxoethyl 2-{1-[(3,4-dichlorophenyl)methyl]piperidin-4-yl}ethylcarbamate], 101 to 105 °C. Consider `CNC(=O)COC(=O)NCCC1CCN(Cc2ncc(-c3ccc(Cl)cc3)o2)CC1` [Compound 105, 2-(methylamino)-2-oxoethyl 2-(1-{[5-(4-chlorophenyl)-1,3-oxazol-2-yl]methyl}piperidin-4-yl)ethylcarbamate], for which the melting point was 124 to 126 °C.

The molecule `CNC(=O)COC(=O)NCCC1CCN(Cc2cc(-c3ccc(Cl)cc3)no2)CC1` [Compound 104, 2-(methylamino)-2-oxoethyl 2-(1-{[3-(4-chlorophenyl)isoxazol-5-yl]methyl}piperidin-4-yl)ethylcarbamate] displayed a melting point of 169 to 171 °C.

In turn, `CNC(=O)COC(=O)NCCC1CCN(CCc2ccccc2Cl)CC1` (as salt: HCl) [Compound 57, 2-(methylamino)-2-oxoethyl 2-{1-[2-(2-chlorophenyl)ethyl]piperidin-4-yl}ethylcarbamate] returned a melting point of 121 to 123 °C. `CNC(=O)COC(=O)NCCC1CCN(Cc2cc(C)cc(Cl)c2)CC1` [Compound 24, 2-(methylamino)-2-oxoethyl 2-[1-(3-chloro-5-methylbenzyl)piperidin-4-yl]ethylcarbamate]: the melting point fell in the range of 79 to 81 °C. The figure for `CNC(=O)COC(=O)NCCC1CCN(CCc2ccc(F)cc2)CC1` [Compound 58, 2-(methylamino)-2-oxoethyl 2-{1-[2-(4-fluorophenyl)ethyl]piperidin-4-yl}ethylcarbamate] is 122 to 124 °C; for `CNC(=O)COC(=O)NCCC1CCN(Cc2ccc(Oc3ccc(Cl)c(F)c3)cc2)CC1` [Compound 28, 2-(methylamino)-2-oxoethyl 2-{1-[4-(4-chloro-3-fluorophenoxy)benzyl]piperidin-4-yl}ethylcarbamate] it is 109 to 111 °C; for `CNC(=O)COC(=O)NCCC1CCN(Cc2ccc(Cl)cc2Cl)CC1` [Compound 18, 2-(methylamino)-2-oxoethyl 2-[1-(2,4-dichlorobenzyl)piperidin-4-yl]ethylcarbamate] it is 117 to 119 °C.

In the case of `CNC(=O)COC(=O)NCCC1CCN(Cc2cccc(C(F)(F)F)c2)CC1` [Compound 13, 2-(methylamino)-2-oxoethyl 2-(1-{[3-(trifluoromethyl)phenyl]methyl}piperidin-4-yl)ethylcarbamate], the melting point fell in the range of 90 to 92 °C.

As for `CNC(=O)COC(=O)NCCC1CCN(Cc2cc(Cl)cc(Cl)c2)CC1` [Compound 21, 2-(methylamino)-2-oxoethyl 2-[1-(3,5-dichlorobenzyl)piperidin-4-yl]ethylcarbamate], the melting point was in the range of 124 to 126 °C. Molecule `CNC(=O)COC(=O)NCCC1CCN(CCCc2ccc(OC)cc2)CC1` (as salt: HCl) [Compound 64, 2-(methylamino)-2-oxoethyl 2-(1-{3-[4-(methyloxy)phenyl]propyl}piperidin-4-yl)ethylcarbamate] showed a melting point of 118 to 120 °C. In turn, `CNC(=O)COC(=O)NC1CCN(CCOc2ccc(Cl)cc2Cl)CC1` [Compound 68] returned a melting point of 115 to 119 °C. Take `CNC(=O)COC(=O)NCCC1CCN(Cc2cccc(Oc3ccc(F)cc3)c2)CC1` [Compound 103, 2-(methylamino)-2-oxoethyl 2-{1-[3-(4-fluorophenoxy)benzyl]piperidin-4-yl}ethylcarbamate]: the melting point lay in the range of 79 to 81 °C. Molecule `CNC(=O)COC(=O)NCCC1CCN(Cc2cccc(OC(C)(C)C)c2)CC1` [Compound 122, 2-(methylamino)-2-oxoethyl 2-[1-(3-tert-butoxybenzyl)piperidin-4-yl]ethylcarbamate] had a melting point of 66 to 70 °C. Molecule `CNC(=O)COC(=O)NCCC1CCN(Cc2ccc(-c3ccc(F)cc3)cc2Cl)CC1` [Compound 27, 2-(methylamino)-2-oxoethyl 2-{1-[(3-chloro-4′-fluorobiphenyl-4-yl)methyl]piperidin-4-yl}ethylcarbamate] registered a melting point of 98 to 102 °C.

The molecule `CNC(=O)COC(=O)NCCC1CCN(CCc2c(F)cccc2Cl)CC1` [Compound 60, 2-(methylamino)-2-oxoethyl 2-{1-[2-(2-chloro-6-fluorophenyl)ethyl]piperidin-4-yl}ethylcarbamate] registered a melting point of 88 to 90 °C. `CNC(=O)COC(=O)NCCC1CCN(Cc2nc(-c3ccc(C(F)(F)F)cc3)cs2)CC1` [Compound 106, 2-(methylamino)-2-oxoethyl 2-[1-({4-[4-(trifluoromethyl)phenyl]-1,3-thiazol-2-yl}methyl)piperidin-4-yl]ethylcarbamate] registered a melting point of 161 to 163 °C. For `CNC(=O)COC(=O)NCCC1CCN(C(C)c2cccc(OC(F)(F)F)c2)CC1` (stereo not drawn) (as salt: HCl) [Compound 110, 2-(methylamino)-2-oxoethyl 2-(1-{1-[3-(trifluoromethoxy)phenyl]ethyl}piperidin-4-yl)ethylcarbamate] the value was 169 to 171 °C. Molecule `CNC(=O)COC(=O)NCCC1CCN(Cc2ccc(Br)cc2)CC1` [Compound 12, 2-(methylamino)-2-oxoethyl 2-{1-[(4-bromophenyl)methyl]piperidin-4-yl}ethylcarbamate] yielded a melting point of 107 to 111 °C. `CNC(=O)COC(=O)NCCC1CCN(Cc2cc(F)ccc2Cl)CC1` [Compound 22, 2-(methylamino)-2-oxoethyl 2-[1-(2-chloro-5-fluorobenzyl)piperidin-4-yl]ethylcarbamate] returned a melting point of 102 to 104 °C. For the molecule `CNC(=O)COC(=O)NCCC1CCN(Cc2cccc(Cl)c2Cl)CC1` [Compound 17, 2-(methylamino)-2-oxoethyl 2-{1-[(2,3-dichlorophenyl)methyl]piperidin-4-yl}ethylcarbamate], the melting point was 114 to 116 °C. The figure for `CNC(=O)COC(=O)NCCC1CCN(CCOc2ccc(Cl)cc2)CC1` [Compound 84, 2-(methylamino)-2-oxoethyl 2-(1-{2-[(4-chlorophenyl)oxy]ethyl}piperidin-4-yl)ethylcarbamate] is 109 to 113 °C; for `CNC(=O)COC(=O)NCCC1CCN(Cc2ccccn2)CC1` [Compound 31, 2-(methylamino)-2-oxoethyl 2-[1-(pyridin-2-ylmethyl)piperidin-4-yl]ethylcarbamate] it is 104 to 106 °C; for `CNC(=O)COC(=O)NCC1CCN(CCc2ccc(F)cc2OC)CC1` [Compound 52] it is 126 to 128 °C. Regarding `CNC(=O)COC(=O)NCCC1CCN(Cc2cc(F)cc(C#N)c2)CC1` [Compound 102, 2-(methylamino)-2-oxoethyl 2-[1-(3-cyano-5-fluorobenzyl)piperidin-4-yl]ethylcarbamate], the melting point is 132 to 134 °C. For the molecule `CNC(=O)COC(=O)NCCC1CCN(CCOc2ccc(F)cc2)CC1` [Compound 83, 2-(methylamino)-2-oxoethyl 2-(1-{2-[(4-fluorophenyl)oxy]ethyl}piperidin-4-yl)ethylcarbamate], the melting point is 125 to 129 °C. `CNC(=O)COC(=O)NCCC1CCN(Cc2cc(Cl)ccc2Cl)CC1` [Compound 19, 2-(methylamino)-2-oxoethyl 2-[1-(2,5-dichlorobenzyl)piperidin-4-yl]ethylcarbamate] came in with a melting point of 125 to 127 °C. The figure for `CNC(=O)COC(=O)NCCC1CCN(Cc2ccc(F)cc2Cl)CC1` [Compound 100, 2-(methylamino)-2-oxoethyl 2-[1-(2-chloro-4-fluorobenzyl)piperidin-4-yl]ethylcarbamate] is 108 to 110 °C; for `CNC(=O)COC(=O)NCCC1CCN(Cc2ccc(OC(F)(F)F)cc2)CC1` [Compound 16, 2-(methylamino)-2-oxoethyl 2-{1-[4-(trifluoromethoxy)benzyl]piperidin-4-yl}ethylcarbamate] it is 109 to 111 °C; for `CNC(=O)COC(=O)NCCC1CCN(Cc2ccc3ccccc3c2)CC1` [Compound 30, 2-(methylamino)-2-oxoethyl 2-[1-(naphthalen-2-ylmethyl)piperidin-4-yl]ethylcarbamate] it is 87 to 93 °C.
